The values below come from publication PMC11477141, “Chemokine Receptor N-Terminus Charge Dictates Reliance on Post-Translational Modifications for Effective Ligand Capture and Following Boosting by Defense Peptides” (International Journal of Molecular Sciences, 2024).

Common to all, as to type: cell-based, human
Assay [1] deals with CCR5-1like. The assay is described as follows: BRET CAMYEL Gαi signaling via chimeric receptor M1-CCR5-1like. The note with it: n = 3. An excerpt:
To finally determine if the lack of acidic amino acids in the CCR5 N-terminus can explain the dependency of this receptor on O-glycosylation for effective ligand interaction, we constructed a CCR5 receptor chimera, where the most acidic N-terminal region of CCR1 was inserted into the CCR5 N-terminus, creating the chimeric receptor CCR5-1like (Figure 7).
Figure 7 Receptor N-termini representing CCR1, CCR5, and the chimeric CCR5-1like. The CCR1 N-terminus contains a lot of acidic amino acids (outlined in red) in the form of aspartic acid (D) and glutamic acid (E), whereas CCR5 only contains a few. The chimeric receptor CCR5-1like that contains part of the CCR1 receptor N-terminus (ETTTDYDE) resembles CCR1 with regard to acidic amino acid content and spacing, but they are not the same.
BRET measurements of Gαi signaling and β-arrestin recruitment: Cells were seeded in 6-well plates (500,000 cells/well) and transiently transfected the following day. For BRET measurements of Gαi signaling, cells were transfected with vectors encoding the human chemokine receptors as indicated (160 ng/well) and the CAMYEL sensor (cAMP sensor, YFP-Epac-RLuc) (840 ng/well) using Lipofectamine (6 µL/well). Briefly, DNA was dissolved in 125 µL OPTI-MEM and Lipofectamine was dissolved in 125 µL OPTI-MEM. The DNA and Lipofectamine solutions were combined into a transfection mixture. The transfection mixture was added dropwise to cells incubated in OPTI-MEM (1 mL/well). Transfections were terminated after 5 h by adding 1 mL of fresh culture medium on top of the OPTI-MEM. The following day the cells were loosened from the plates in PBS with 5 mM glucose and subsequently aliquoted in white 96-well iso plates (~25,000 cells/well). When using C21TP variants and defense peptides (hBD2 and histatin), these were added to a final concentration of 10 μM/well, while an equal amount of PBS was added to control cells. The bioluminescence substrate coelenterazine was added to a final conc. of 5 µM. After 10 min, varying ligand concentrations were added. For BRET measurements of Gαi signaling, forskolin was added 5 min after the addition of the ligand, to a final conc. of 5 µM. The plates were kept in the dark at all times. A Perkin Elmer Envision machine was used for measuring the emission signals at 530 and 480 nm. The BRET signal is determined as the ratio eYFP (530 nm)/Rluc (480 nm).
BRET principle with CAMYEL: For quantification of signaling initiated immediately downstream of receptor activation, we used the cAMP binding CAMYEL sensor to perform bioluminescence resonance energy transfer (BRET) based assays. In this assay we measure changes in intracellular cAMP levels in response to receptor activation. Activation of chemokine receptors lead to a decrease in cAMP through inhibition of adenylate cyclase (AC). In the current setup we initially add forskolin that stimulates AC directly to induce an increase in intracellular cAMP, and we then measure the ability of a ligand (chemokine) to counteract the forskolin-induced increase in cAMP. The cAMP sensor (CAMYEL cAMP sensor, YFP-Epac-RLuc) carries the donor Renilla luciferase (Rluc) and the acceptor YFP. Coelenterazine is a substrate for Rluc that will emit light at around 475 nm upon enzymatic cleavage catalyzed by Rluc. When Rluc and YFP are in close proximity, the energy from the emitted light from coelenterazine can be transferred to YFP, resulting in an excitation of YFP, leading to a BRET signal around 525 nm. […]

Assay [2] concerns Y10A-CCR5. The assay is described as follows: BRET CAMYEL Gαi signaling via Y10A-CCR5. The note with it: CHO cells, n = 3. On the procedure:
(§1) BRET measurements of Gαi signaling and β-arrestin recruitment: Cells were seeded in 6-well plates (500,000 cells/well) and transiently transfected the following day. For BRET measurements of Gαi signaling, cells were transfected with vectors encoding the human chemokine receptors as indicated (160 ng/well) and the CAMYEL sensor (cAMP sensor, YFP-Epac-RLuc) (840 ng/well) using Lipofectamine (6 µL/well). Briefly, DNA was dissolved in 125 µL OPTI-MEM and Lipofectamine was dissolved in 125 µL OPTI-MEM. The DNA and Lipofectamine solutions were combined into a transfection mixture. The transfection mixture was added dropwise to cells incubated in OPTI-MEM (1 mL/well). Transfections were terminated after 5 h by adding 1 mL of fresh culture medium on top of the OPTI-MEM. The following day the cells were loosened from the plates in PBS with 5 mM glucose and subsequently aliquoted in white 96-well iso plates (~25,000 cells/well). […] The BRET signal is determined as the ratio eYFP (530 nm)/Rluc (480 nm).
(§2) BRET principle with CAMYEL: For quantification of signaling initiated immediately downstream of receptor activation, we used the cAMP binding CAMYEL sensor to perform bioluminescence resonance energy transfer (BRET) based assays. […] The BRET ratio is determined as the ratio between YFP/Rluc, and an increase in BRET ratio indicates a decrease in cAMP and thus increased chemokine receptor activation. […]

The test system of assay [3] is Y10Y14Y15AAA-CCR5. The assay is described as follows: BRET CAMYEL Gαi signaling via Y10Y14Y15AAA-CCR5. The note with it: CHO cells, n = 3. As to the method: as §1, §2
The mark [4] stands for this setting: HEK293 WT, DeltaSia and sC cells, 10 µM peptide.

Where no end group is shown, it is not given here.

With “CCL5: human chemokine from Peprotech, overall basic”, the “Gαi signaling via M1-CCR5-1like in DeltaSia and sC cells compared to WT cells” value in assay [1] (HEK293 DeltaSia and sC) is “persists in DeltaSia and sC to almost the same high level as observed in WT cells”. Moreover, in assay [2], the “Gαi signaling via Y10A-CCR5 compared to WT-CCR5” value is given as “significantly reduced”. In addition, in assay [3], the “Gαi signaling via Y10Y14Y15AAA-CCR5 compared to WT-CCR5” value is on record as “completely abolished”.

With “RKDRGASKTGKKGKGSKGCKRTERSQTPKGP [C21TP^81-111]”, in assay [1] (setting [4]), the “boosting of CCL3 signaling via M1-CCR5-1like” value is given as “absent” and the “boosting of CCL8 signaling via M1-CCR5-1like” value was “absent”. Also, in assay [2] (10 µM peptide), the “boosting of CCL5 signaling via Y10A receptor variant” value is given as “maintained”. Further, the “boosting of CCL5 signaling via Y10Y14Y15AAA receptor variant” value in assay [3] (10 µM peptide) is on record as “no longer possible”.
